Results reported in publication PMC6717215, “Chemical characterization and biological activity data for a novel indirubin derivative, LDD-1819” (Data in Brief, 2019).
Counter-ions that a name gives are not always drawn.

Assays:
[1] = biological target: T1, glycogen synthase kinase-3 β (GSK-3β) (Homo sapiens, UniProt P49841); experiment: Z′-LYTE FRET peptide biochemical kinase assay, ATP at Km, concentration-dependent
T1 construct: gene GSK3B

[2] = biological target: T2, aurora kinase A (Homo sapiens, UniProt O14965); experiment: as above
T2 construct: gene AURKA
T2 sequence (O14965 1-403): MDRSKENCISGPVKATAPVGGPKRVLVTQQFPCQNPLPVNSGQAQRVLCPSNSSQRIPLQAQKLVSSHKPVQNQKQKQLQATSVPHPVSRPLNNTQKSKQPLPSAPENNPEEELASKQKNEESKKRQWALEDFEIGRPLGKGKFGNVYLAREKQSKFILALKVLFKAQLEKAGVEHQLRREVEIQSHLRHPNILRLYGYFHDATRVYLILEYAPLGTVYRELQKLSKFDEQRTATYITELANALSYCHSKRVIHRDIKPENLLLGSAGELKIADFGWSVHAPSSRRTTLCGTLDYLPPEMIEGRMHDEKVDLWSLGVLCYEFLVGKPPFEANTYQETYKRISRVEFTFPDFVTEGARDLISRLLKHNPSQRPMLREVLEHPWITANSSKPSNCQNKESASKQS

T1 sequence (P49841 whole entry): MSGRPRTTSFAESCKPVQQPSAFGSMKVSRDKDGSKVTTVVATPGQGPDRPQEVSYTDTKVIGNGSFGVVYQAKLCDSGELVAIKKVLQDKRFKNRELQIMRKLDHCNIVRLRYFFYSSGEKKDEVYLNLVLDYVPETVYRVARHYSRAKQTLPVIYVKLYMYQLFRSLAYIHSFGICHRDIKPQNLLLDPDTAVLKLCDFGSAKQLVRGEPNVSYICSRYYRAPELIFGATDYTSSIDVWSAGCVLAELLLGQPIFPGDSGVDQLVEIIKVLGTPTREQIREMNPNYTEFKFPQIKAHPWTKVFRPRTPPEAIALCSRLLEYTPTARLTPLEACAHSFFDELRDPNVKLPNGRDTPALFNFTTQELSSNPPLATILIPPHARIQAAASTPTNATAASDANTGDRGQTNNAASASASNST

## NCCO/N=C1/C(=C2/C(=O)Nc3ccc([N+](=O)[O-])cc32)Nc2ccc(O)cc21 [LDD-1819, (2Z,3E)-3-((2-aminoethoxy)imino)-5-hydroxy-5′-nitro-[2,3′-biindolinylidene]-2′-one hydrochloride]
[1]
  IC50: 5.46 nM
[2]
  IC50: 222 nM
